pKd: −log10 of the molar value.
What was measured:
[1] = test system: U87EGFRvIII xenografts; assay: U87EGFRvIII s.c. xenograft, tumor growth; format: in vivo; conditions: s.c. U87EGFRvIII in immunodeficient mice; mAbs i.p. 5 mg/kg days 8, 12, 15; erlotinib 150 mg/kg 6 times per week
Method: Illustrative but not limiting examples of immunodeficient strains of mice that can be used are nude mice such as CD-1 nude, Nu/Nu, Balb/c nude, NIH-III (NIH-bg-nu-xid BR); scid mice such as Fox Chase SCID (C.B-17 SCID), Fox Chase outbred SCID and SCID Beige; mice deficient in RAG enzyme; as well as nude rats. Experiments are carried out as described previously (Kim et al., Nature 362:841, 1992, which is incorporated herein by reference). Human tumor cells typically grown in complete DMEM medium are typically harvested in HBSS. Female immunodeficient, e.g., athymic nude mice (4-6 wks old) are injected s.c. with typically 5×10^6 cells in 0.2 ml of HBSS in the dorsal areas. When the tumor size reaches 50-100 mm^3, the mice are grouped randomly and appropriate amounts of the agents are administered. […] Tumor sizes are determined typically twice a week by measuring in two dimensions [length (a) and width (b)]. Tumor volume is calculated according to V=ab^2/2 and expressed as mean tumor volume±SEM. […] The effect of the agents may measured by growth of the tumor with time, prolongation of the survival of the mice, or increase in percent of the mice surviving at a given time or indefinitely. […]

[2] = test system: U87EGFRvIII intracranial xenografts; assay: U87EGFRvIII intracranial xenograft, survival; format: in vivo, mice; conditions: treated day 5 to 21, 5 mg/kg mAb twice per week, 150 mg erlotinib 6 times per week
Method: In this experiment, mice were implanted intracranially with U87EGFRvIII cells as described (Kim et al, op. cit.) in order to more accurately simulate brain tumors. Four groups of mice were treated with control mAb 5G8 or anti-HGF mAb L27, either alone or in combination with erlotinib, from post-implantation day 5 to 21 (5 mg/kg mAb twice per week; 150 mg erlotinib 6 times per week).

[3] = target: cMet receptor (Homo sapiens, UniProt P08581); conditions: literature; read-out: Kd, high affinity binding site for cMet receptor; cited from earlier work
[4] = target: heparin sulfate proteoglycans (HSPG); conditions: literature; read-out: Kd, low affinity binding site for HSPG; cited from earlier work
[5] = test system: GB-d1 gallbladder tumor xenografts; assay: GB-d1 gallbladder tumor s.c. xenograft, tumor growth; format: in vivo; conditions: NIH III xid/Beige/nude mice, mAbs 100 μg (approx. 5 mg/kg) twice per week from day 13
Method: Human tumor cells typically grown in complete DMEM medium are typically harvested in HBSS. Female immunodeficient, e.g., athymic nude mice (4-6 wks old) are injected s.c. with typically 5×10^6 cells in 0.2 ml of HBSS in the dorsal areas. When the tumor size reaches 50-100 mm^3, the mice are grouped randomly and appropriate amounts of the agents are administered. […] Tumor sizes are determined typically twice a week by measuring in two dimensions [length (a) and width (b)]. Tumor volume is calculated according to V=ab^2/2 and expressed as mean tumor volume±SEM. The number of mice in each treatment group is at least 3, but more often between 5 and 10, e.g., 7. One group of mice is treated with both agents; other groups may be treated with neither agent or with one agent but not the other agent. […] Statistical analysis may be performed using, e.g., Student's t test.
For example, such an experiment was performed with GB-d1 gallbladder tumor xenografts. Female NIH III xid/Beige/nude mice (4-6 wks old) were implanted with tumors by s.c. injection of 10^6 GB-d1 cells in the dorsal areas. When the tumor size reached ˜100 mm^3, the mice were grouped randomly into 4 groups of 5 mice each. […] The mAbs were administered twice per week at 100 μg (approx. 5 mg/kg body weight) from day 13. Tumor sizes were determined twice per week as described above.

Chain of cMet receptor (P08581 25-1390): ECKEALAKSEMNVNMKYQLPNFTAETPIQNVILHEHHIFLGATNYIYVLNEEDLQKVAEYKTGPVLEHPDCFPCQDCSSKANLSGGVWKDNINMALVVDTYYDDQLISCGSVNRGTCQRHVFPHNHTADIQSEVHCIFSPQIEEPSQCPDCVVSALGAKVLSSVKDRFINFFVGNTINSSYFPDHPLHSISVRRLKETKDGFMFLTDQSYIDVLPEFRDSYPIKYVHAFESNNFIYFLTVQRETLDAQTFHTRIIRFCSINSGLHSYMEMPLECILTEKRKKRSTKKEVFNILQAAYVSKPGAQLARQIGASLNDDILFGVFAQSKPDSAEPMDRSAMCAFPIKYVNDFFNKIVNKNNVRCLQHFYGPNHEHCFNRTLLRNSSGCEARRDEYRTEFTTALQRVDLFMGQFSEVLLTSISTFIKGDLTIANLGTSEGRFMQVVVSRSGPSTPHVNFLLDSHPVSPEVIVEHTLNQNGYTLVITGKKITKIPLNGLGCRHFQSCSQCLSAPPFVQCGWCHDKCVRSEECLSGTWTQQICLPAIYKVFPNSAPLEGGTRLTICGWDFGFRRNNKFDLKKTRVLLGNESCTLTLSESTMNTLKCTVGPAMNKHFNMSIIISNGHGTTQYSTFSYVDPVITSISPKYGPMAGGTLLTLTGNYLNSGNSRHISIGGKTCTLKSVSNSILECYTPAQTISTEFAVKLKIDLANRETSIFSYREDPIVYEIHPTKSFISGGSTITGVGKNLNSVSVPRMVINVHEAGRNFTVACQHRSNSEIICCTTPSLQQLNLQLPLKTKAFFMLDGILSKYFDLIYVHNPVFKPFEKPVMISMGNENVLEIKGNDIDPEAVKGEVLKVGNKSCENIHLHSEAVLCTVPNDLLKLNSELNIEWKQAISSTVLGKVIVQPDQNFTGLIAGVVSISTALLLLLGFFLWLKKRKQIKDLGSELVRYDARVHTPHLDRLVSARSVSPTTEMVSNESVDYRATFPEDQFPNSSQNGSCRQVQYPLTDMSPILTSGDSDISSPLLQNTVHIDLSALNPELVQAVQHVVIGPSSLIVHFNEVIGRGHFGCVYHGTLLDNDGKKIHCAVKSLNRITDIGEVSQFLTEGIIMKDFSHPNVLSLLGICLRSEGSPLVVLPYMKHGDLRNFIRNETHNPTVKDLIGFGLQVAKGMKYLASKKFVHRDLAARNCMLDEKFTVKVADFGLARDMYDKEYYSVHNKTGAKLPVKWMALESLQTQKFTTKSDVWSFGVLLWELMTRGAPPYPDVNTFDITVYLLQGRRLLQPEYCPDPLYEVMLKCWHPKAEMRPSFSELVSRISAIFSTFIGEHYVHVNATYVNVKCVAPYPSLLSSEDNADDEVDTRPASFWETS

Compound: C#Cc1cccc(Nc2ncnc3cc(OCCOC)c(OCCOC)cc23)c1 [erlotinib, N-(3-ethynylphenyl)-6,7-bis(2-methoxyethoxy)-4-quinazolinamine]
- inhibition of growth of xenografts (FIG. 2) [1]: only modestly inhibited growth of the tumors
- prolongation of survival (FIG. 3) [2]: slightly but significantly prolonged survival

Compound: HGF: 102 kDa heterodimeric polypeptide growth factor, ligand of cMet
- pKd [3]: 9.70
- pKd [4]: 9.00

Compound: HuL2G7: humanized L2G7 anti-HGF mAb; heavy and light chains SEQ ID NO:1 and 2
- inhibition of tumor growth (FIG. 1) [5]: partially inhibited tumor growth

From patent publication US20120076775A1, “Combination of HGF Inhibitor and EGF Inhibitor to Treat Cancer” (priority 2008, published 2012)
